Molecular target: T1, human VNUT (Homo sapiens, UniProt Q9BYT1)
T1 construct: made in house; host or cells: HIGH FIVE insect cells (baculovirus)
T1 sequence (Q9BYT1 1-430 isoform Q9BYT1-2): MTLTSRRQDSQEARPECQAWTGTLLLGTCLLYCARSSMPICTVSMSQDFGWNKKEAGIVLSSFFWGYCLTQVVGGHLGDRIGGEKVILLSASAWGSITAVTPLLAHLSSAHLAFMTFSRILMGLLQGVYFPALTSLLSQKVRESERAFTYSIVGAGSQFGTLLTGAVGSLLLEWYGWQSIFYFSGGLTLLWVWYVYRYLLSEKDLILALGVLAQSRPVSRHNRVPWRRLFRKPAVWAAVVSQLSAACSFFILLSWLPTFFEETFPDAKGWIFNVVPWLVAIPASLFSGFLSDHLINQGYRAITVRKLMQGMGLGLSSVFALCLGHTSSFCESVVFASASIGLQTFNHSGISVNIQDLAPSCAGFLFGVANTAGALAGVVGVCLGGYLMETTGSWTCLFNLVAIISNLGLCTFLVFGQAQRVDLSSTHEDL
Test: ATP loading into reconstituted liposomes containing human VNUT
Format: biochemical
Details: 0.1 mM PEP; 30°C, 2 minutes; N = 3
Experimental: Human VNUT was prepared according to Reference C (Keisuke Sawada et al., 2008, Identification of a vesicular nucleotide transporter, Proc Natl Acad Sci USA, vol. 105, no. 15, 5683-5686). Insect cells (HIGH FIVE cells) were infected at MOI = 1 with a baculovirus in which a human VNUT expression system was incorporated. HIGH FIVE cells expressing VNUT (1 × 10^8 cells) were collected with a cell scraper, and suspended at about 8 mg/ml in 20 mM Tris-HCl (pH 8.0), 0.1 M potassium acetate, 10% glycerol, 10 µg/ml pepstatin A, and 10 µg/ml leupeptin, followed by homogenization of the cells using an ultrasonic generator (manufactured by Sonics Materials). […]
VNUT (protein, 20 µg) prepared by the above method was mixed with liposomes (lipid weight, 200 µg), and left to stand at -80°C for 30 minutes. […] A major band was detected at a position of about 68 kDa. The proteins after the electrophoresis with the ePAGEL E-T520 2-10% gradient gel (manufactured by Atto) were electrotransferred to a nitrocellulose sheet, and analyzed by Western blotting using an anti-human SLC17A9 (VNUT) rabbit polyclonal antibody (manufactured by Proteintech).
The ATP transport activity of the VNUT-containing reconstituted liposomes prepared by the above method was measured. […]

In the case of `C=C(OP(=O)(O)O)C(=O)O` [PEP, phosphoenolpyruvic acid], the “ATP loading into liposomes” value is reported as “strongly inhibited”.
